Patent US20260131009A1, “BIFUNCTIONAL PI3K-ALPHA INHIBITORS AND USES THEREOF” (Relay Therapeutics, Inc., priority 2021, published 2026)

Key:
PI3Kα = PI3Kα (Homo sapiens, UniProt P42336, H1047R); assay: ADP-Glo IC50 assay; format: biochemical; details: class symbols; key not given
MCF10A = MCF10A IC50 assay; format: cell-based; details: Homo sapiens, MCF-10A; class symbols; key not given
How it was run: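 MCF10A cells overexpressing hotspot PIK3CA mutations were seeded at 5,000 per well in supplemented DMEM/F12 and adhered overnight (37 °C, 5% CO₂). Compounds were added acoustically as 12-dose 1:3 series, in duplicate, for 2 hours. Cells were lysed 60 min, then incubated 4 hours at room temperature with CisBio phospho-AKT (Ser473) HTRF antibodies and read on an Envision 2105. IC₅₀ for AKT phosphorylation came from Genedata software and was reported as binned categories.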

Chain of PI3Kα (P42336 whole entry H1047R): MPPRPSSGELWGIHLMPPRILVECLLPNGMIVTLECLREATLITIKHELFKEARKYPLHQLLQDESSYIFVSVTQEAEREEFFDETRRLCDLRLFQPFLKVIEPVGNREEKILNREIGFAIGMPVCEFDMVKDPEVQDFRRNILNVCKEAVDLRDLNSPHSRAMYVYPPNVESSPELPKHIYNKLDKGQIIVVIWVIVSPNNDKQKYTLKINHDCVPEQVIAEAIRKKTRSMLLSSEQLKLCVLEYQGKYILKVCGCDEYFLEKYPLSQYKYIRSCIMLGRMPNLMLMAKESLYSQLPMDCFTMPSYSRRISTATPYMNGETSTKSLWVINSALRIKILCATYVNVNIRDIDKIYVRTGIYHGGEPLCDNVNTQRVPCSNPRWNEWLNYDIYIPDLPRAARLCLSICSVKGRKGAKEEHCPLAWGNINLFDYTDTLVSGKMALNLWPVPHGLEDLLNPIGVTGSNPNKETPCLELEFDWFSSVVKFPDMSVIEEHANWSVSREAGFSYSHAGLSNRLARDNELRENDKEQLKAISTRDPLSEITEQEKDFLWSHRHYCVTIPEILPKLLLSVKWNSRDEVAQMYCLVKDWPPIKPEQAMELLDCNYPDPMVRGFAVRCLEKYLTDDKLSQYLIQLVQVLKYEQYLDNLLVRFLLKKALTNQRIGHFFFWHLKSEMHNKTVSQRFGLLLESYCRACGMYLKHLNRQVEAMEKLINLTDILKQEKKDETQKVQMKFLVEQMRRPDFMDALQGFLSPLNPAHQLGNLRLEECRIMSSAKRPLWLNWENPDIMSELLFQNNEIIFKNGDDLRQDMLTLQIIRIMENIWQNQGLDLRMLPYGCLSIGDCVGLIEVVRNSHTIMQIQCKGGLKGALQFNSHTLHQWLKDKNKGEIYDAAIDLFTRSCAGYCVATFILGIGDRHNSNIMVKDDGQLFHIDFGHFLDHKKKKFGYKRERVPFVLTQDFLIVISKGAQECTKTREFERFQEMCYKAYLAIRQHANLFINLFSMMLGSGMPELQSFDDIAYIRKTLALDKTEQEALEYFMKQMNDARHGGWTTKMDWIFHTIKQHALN
Chain of PI3Kα (P27986 whole entry partner): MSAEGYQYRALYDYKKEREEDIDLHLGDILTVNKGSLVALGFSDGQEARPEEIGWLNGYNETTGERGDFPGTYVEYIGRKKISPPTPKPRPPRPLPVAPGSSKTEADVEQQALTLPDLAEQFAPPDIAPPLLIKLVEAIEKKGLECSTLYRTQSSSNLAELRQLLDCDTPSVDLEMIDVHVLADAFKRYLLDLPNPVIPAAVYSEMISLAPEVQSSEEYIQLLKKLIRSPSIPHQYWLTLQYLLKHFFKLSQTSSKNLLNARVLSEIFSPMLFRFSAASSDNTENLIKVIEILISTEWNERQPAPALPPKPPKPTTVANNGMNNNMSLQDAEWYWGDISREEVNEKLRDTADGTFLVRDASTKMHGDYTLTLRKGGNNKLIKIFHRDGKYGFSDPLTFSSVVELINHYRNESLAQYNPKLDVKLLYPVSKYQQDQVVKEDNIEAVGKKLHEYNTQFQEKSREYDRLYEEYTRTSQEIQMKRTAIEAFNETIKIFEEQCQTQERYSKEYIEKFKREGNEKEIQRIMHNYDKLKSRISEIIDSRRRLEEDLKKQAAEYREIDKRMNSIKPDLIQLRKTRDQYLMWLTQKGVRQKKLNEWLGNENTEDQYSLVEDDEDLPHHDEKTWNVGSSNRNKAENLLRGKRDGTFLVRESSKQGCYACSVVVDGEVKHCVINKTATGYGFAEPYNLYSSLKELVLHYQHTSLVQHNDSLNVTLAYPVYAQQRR

SMILES	IC50 (PI3Kα) [µM]	IC50 (MCF10A) [µM]
Cc1ccccc1Nc1ncc(C(=O)NCCOCCOCCOCCC(=O)N[C@H](C(=O)N2C[C@H](O)C[C@H]2C(=O)N[C@@H](C)c2ccc(-c3scnc3C)cc2)C(C)(C)C)cc1NC(=O)c1csc2ccccc12 [Example I-4]	1 to 10	10 to 36
Cc1cc(Br)c2oc(N3CCN(C(=O)CCCCCCCNC(=O)c4cnc(Nc5ccccc5C)c(NC(=O)c5csc6ccccc56)c4)CC3)cc(=O)c2c1 [Example I-87]	0.1 to 0.5	< 1
Cc1cc(Br)c2oc(N3CCN(C(=O)CCCCCCCCNC(=O)c4cnc(Nc5ccccc5C)c(NC(=O)c5csc6ccccc56)c4)CC3)cc(=O)c2c1 [Example I-78]	0.1 to 0.5	10 to 36
Cc1ccccc1Nc1ncc(C(=O)NCCCCCCCNC(=O)c2ccc3c(c2)CN(C2CCC(=O)NC2=O)C3=O)cc1NC(=O)c1csc2ccccc12 (centres unmarked) [Example I-5]	0.1 to 0.5	10 to 36
Cc1ccccc1Nc1ncc(C(=O)NCCCCCNC(=O)c2ccc3c(c2)CN(C2CCC(=O)NC2=O)C3=O)cc1NC(=O)c1csc2ccccc12 (centres unmarked) [Example I-1]	0.1 to 0.5	10 to 36

Second part, led by results:

IC50 (PI3Kα) [µM]	SMILES	IC50 (MCF10A) [µM]
1 to 10	Cc1ccccc1Nc1ncc(C(=O)NCCOCCOCCOCCOCCC(=O)N[C@H](C(=O)N2C[C@H](O)C[C@H]2C(=O)N[C@@H](C)c2ccc(-c3scnc3C)cc2)C(C)(C)C)cc1NC(=O)c1csc2ccccc12 [Example I-13]	10 to 36
< 0.1	O=C(O)CCCCCCCCCNC(=O)c1cnc(Nc2cc(F)ccc2Cl)c(NC(=O)c2csc3ccccc23)c1 [Example I-72]	10 to 36
0.1 to 0.5	Cc1cc(Br)c2oc(N3CCN(C(=O)CCCCCCCCCNC(=O)c4cnc(Nc5ccccc5C)c(NC(=O)c5csc6ccccc56)c4)CC3)cc(=O)c2c1 [Example I-82]	10 to 36
0.1 to 0.5	Cc1ccccc1Nc1ncc(C(=O)NCCCCCNc2cccc3c2C(=O)N(C2CCC(=O)NC2=O)C3=O)cc1NC(=O)c1csc2ccccc12 (centres unmarked) [Example I-22]	10 to 36
0.1 to 0.5	Cc1ccccc1Nc1ncc(C(=O)NCCCCCCCNc2ccc3c(c2)C(=O)N(C2CCC(=O)NC2=O)C3=O)cc1NC(=O)c1csc2ccccc12 (centres unmarked) [Example I-39]	10 to 36
0.1 to 0.5	Cc1ccccc1Nc1ncc(C(=O)NCCCCCCCCCC(=O)N[C@H](C(=O)N2C[C@H](O)C[C@H]2C(=O)N[C@@H](C)c2ccc(-c3scnc3C)cc2)C(C)(C)C)cc1NC(=O)c1csc2ccccc12 [Example 1-7]	10 to 36
0.1 to 0.5	Cc1ccccc1Nc1ncc(C(=O)NCCCCCCCC(=O)N[C@H](C(=O)N2C[C@H](O)C[C@H]2C(=O)N[C@@H](C)c2ccc(-c3scnc3C)cc2)C(C)(C)C)cc1NC(=O)c1csc2ccccc12 [Example I-8]	10 to 36
0.1 to 0.5	Cc1ccccc1Nc1ncc(C(=O)NCCCCCCCCCNc2ccc3c(c2)C(=O)N(C2CCC(=O)NC2=O)C3=O)cc1NC(=O)c1csc2ccccc12 (centres unmarked) [Example I-12]	10 to 36
